Measurements reported in patent publication US4493843A, “Indole and indoline carboxylic acid compounds and method of use” (May & Baker Limited, priority 1980, dated 1985).
Where two headings read alike, the source gives them in different places.

Tested on: serum cholesterol and serum triglycerides
Assay: Hypolipidaemic activity in rats (compound in diet, last 7 of 10 days)
Assay type: in vivo, Male Wistar rats
Settings: Rattus norvegicus, po, 168 h, 7 days; for change in vivo at 0.2 % strength: 0.2 % w/w dose in diet; for change in vivo at 0.1 % strength: 0.1 % w/w dose in diet
Description: Hypolipidaemic Activity in Rats
Male Wistar rats each weighing between 120 and 150 g were caged in groups of eight and fed a powdered diet for 10 days. For the last 7 days of that period the test compound was administered orally by mixing the compound in the diet and allowing the animals to feed normally. Food consumption was measured on day 9 for each group.
At noon on day 10 the animals were killed by inhalation of carbon dioxide from solid carbon dioxide. A sample of blood was removed by cardiac puncture and the serum cholesterol and serum triglycerides were analysed by means of an autoanalyser.
Control groups (receiving only the normal, unmedicated diet) were included with each test.
The percentage reductions in the concentrations of serum cholesterol and serum triglycerides were calculated by comparison with the simultaneous controls, for each concentration of the test compound used.

[1] = read-out: % change in serum cholesterol compared with control
[2] = read-out: % change in serum triglycerides compared with control

Structure (SMILES): CCCCCCCCCCCCCc1cc2ccc(C(=O)OCC)cc2[nH]1 [Compound AMM, ethyl 2-(n-tridecyl)indole-6-carboxylate]
- change in vivo at 0.2 % strength [1]: -4%
- change in vivo at 0.2 % strength [2]: -12%

Structure (SMILES): CCCCCCCCCCCCCCCc1cc2ccc(C(=O)OC)cc2[nH]1 [Compound ANN, methyl 2-(n-pentadecyl)indole-6-carboxylate]
- change in vivo at 0.2 % strength [1]: 1%
- change in vivo at 0.2 % strength [2]: -25%

Structure (SMILES): CCCCCCCCCCCCCCCc1cc2ccc(C(=O)OCCCC)cc2[nH]1 [Compound APP, n-butyl 2-(n-pentadecyl)indole-6-carboxylate]
- change in vivo at 0.2 % strength [1]: -2%
- change in vivo at 0.2 % strength [2]: -20%

Structure (SMILES): CCCCCCCCCCCCCCCCCCCCc1cc2ccc(C(=O)OCCCC)cc2[nH]1 [Compound AQQ, n-butyl 2-(n-eicosyl)indole-6-carboxylate]
- change in vivo at 0.2 % strength [1]: 6%
- change in vivo at 0.2 % strength [2]: -12%

Structure (SMILES): CCCCCCCc1cc2cc(C(=O)OCCCC)ccc2[nH]1 [Compound ARR, n-butyl 2-(n-heptyl)indole-5-carboxylate]
- change in vivo at 0.2 % strength [1]: 8%
- change in vivo at 0.2 % strength [2]: 20%

Structure (SMILES): CCCCCCCCCCCc1cc2cc(C(=O)OC)ccc2[nH]1 [Compound ATT, methyl 2-(n-undecyl)indole-5-carboxylate]
- change in vivo at 0.2 % strength [1]: -16%
- change in vivo at 0.2 % strength [2]: -70%

Structure (SMILES): CCCCCCCCCCCc1cc2cc(C(=O)OCCCC)ccc2[nH]1 [Compound AUU, n-butyl 2-(n-undecyl)indole-5-carboxylate]
- change in vivo at 0.2 % strength [1]: -14%
- change in vivo at 0.2 % strength [2]: -57%

Structure (SMILES): CCCCCCCCCCCCc1cc2cc(C(=O)OC)ccc2[nH]1 [Compound AVV, methyl 2-(n-dodecyl)indole-5-carboxylate]
- change in vivo at 0.1 % strength [1]: -16%
- change in vivo at 0.1 % strength [2]: -65%
- change in vivo at 0.2 % strength [1]: -21%
- change in vivo at 0.2 % strength [2]: -80%

Structure (SMILES): CCCCCCCCCCCCCCCCCc1cc2cc(C(=O)OC)ccc2[nH]1 [Compound AWW, methyl 2-(n-heptadecyl)indole-5-carboxylate]
- change in vivo at 0.2 % strength [1]: -24%

Structure (SMILES): CCCCCCCCc1c[nH]c2cc(C(=O)OC)ccc12 [Compound AZZ, methyl 3-(n-octyl)indole-6-carboxylate]
- change in vivo at 0.2 % strength [1]: -18%
- change in vivo at 0.2 % strength [2]: 24%

Structure (SMILES): CCCCCCCCCCCCCCCCCc1cc2ccc(C(=O)O)cc2[nH]1 [Compound B, 2-(n-heptadecyl)indole-6-carboxylic acid]
- change in vivo at 0.2 % strength [1]: 5%
- change in vivo at 0.2 % strength [2]: -4%

Structure (SMILES): CCCCCCCCCCCCCCCc1cc2cc(C(=O)OCC)ccc2[nH]1 [Compound BB, ethyl 2-(n-pentadecyl)indole-5-carboxylate]
- change in vivo at 0.2 % strength [1]: -19%
- change in vivo at 0.2 % strength [2]: -39%

Structure (SMILES): CCCCCCCCCCCCCCCCc1c[nH]c2ccc(C(=O)OC)cc12 [Compound BCC, methyl 3-(n-hexadecyl)indole-5-carboxylate]
- change in vivo at 0.2 % strength [1]: 2%
- change in vivo at 0.2 % strength [2]: 16%

Structure (SMILES): CCCCCCCCCCCCc1c[nH]c2cc(C(=O)O)ccc12 [Compound BDD, 3-(n-dodecyl)indole-6-carboxylic acid]
- change in vivo at 0.2 % strength [1]: -2%
- change in vivo at 0.2 % strength [2]: -5%

Structure (SMILES): CCCCCCCCc1c[nH]c2cc(C(=O)O)ccc12 [Compound BEE, 3-(n-octyl)indole-6-carboxylic acid]
- change in vivo at 0.2 % strength [1]: -19%
- change in vivo at 0.2 % strength [2]: -18%

Structure (SMILES): CCCCCCCCCCCCCCCCc1c[nH]c2cc(C(=O)O)ccc12 [Compound BFF, 3-(n-hexadecyl)indole-6-carboxylic acid]
- change in vivo at 0.2 % strength [1]: 7%
- change in vivo at 0.2 % strength [2]: -17%

Structure (SMILES): CCCCCCCCCCCCCCCCCCc1c[nH]c2cc(C(=O)O)ccc12 [Compound BGG, 3-(n-octadecyl)indole-6-carboxylic acid]
- change in vivo at 0.2 % strength [1]: -7%
- change in vivo at 0.2 % strength [2]: -7%

Structure (SMILES): CCCCCCCCCCCCCCCCc1c[nH]c2ccc(C(=O)O)cc12 [Compound BHH, 3-(n-hexadecyl)indole-5-carboxylic acid]
- change in vivo at 0.2 % strength [1]: -6%
- change in vivo at 0.2 % strength [2]: -10%

Structure (SMILES): CCCCCCCCCCCCCCCCCCc1c[nH]c2ccc(C(=O)O)cc12 [Compound BSS, 3-(n-octadecyl)indole-5-carboxylic acid]
- change in vivo at 0.2 % strength [1]: -9%
- change in vivo at 0.2 % strength [2]: -11%

Structure (SMILES): CCCCCCCCc1c[nH]c2ccc(C(=O)O)cc12 [Compound BTT, 3-(n-octyl)indole-5-carboxylic acid]
- change in vivo at 0.2 % strength [1]: 0%
- change in vivo at 0.2 % strength [2]: 15%

Structure (SMILES): CCCCCCCCCCCc1cc2ccc(C(=O)O)cc2[nH]1 [Compound C, 2-(n-undecyl)indole-6-carboxylic acid]
- change in vivo at 0.1 % strength [1]: -28%
- change in vivo at 0.1 % strength [2]: -39%

Structure (SMILES): CCCCCCCCCCCCc1cc2ccc(C(=O)OCC)cc2[nH]1 [Compound CC, ethyl 2-(n-dodecyl)indole-6-carboxylate]
- change in vivo at 0.2 % strength [1]: -17%
- change in vivo at 0.2 % strength [2]: -57%

Structure (SMILES): CCCCCCCCCCCC1Nc2cc(C(=O)O)ccc2C1C (stereo not drawn) [Compound CNN, 2(RS),3(RS)-2-(n-undecyl)-3-methylindoline-6-carboxylic acid]
- change in vivo at 0.2 % strength [1]: -31%
- change in vivo at 0.2 % strength [2]: -72%

Structure (SMILES): CCCCCCCc1cc2cc(C(=O)OCC)ccc2[nH]1 [Compound DD, ethyl 2-(n-heptyl)indole-5-carboxylate]
- change in vivo at 0.2 % strength [1]: -6%
- change in vivo at 0.2 % strength [2]: -25%

Structure (SMILES): CCCCCCCCCCCCCCCCCc1cc2cc(C(=O)O)ccc2[nH]1 [Compound E, 2-(n-heptadecyl)indole-5-carboxylic acid]
- change in vivo at 0.1 % strength [1]: -42%
- change in vivo at 0.1 % strength [2]: -55%
- change in vivo at 0.2 % strength [1]: -54%
- change in vivo at 0.2 % strength [2]: -65%

Structure (SMILES): CCCCCCCCCCCCCCCc1cc2c(C(=O)OCC)cccc2[nH]1 [Compound EE, ethyl 2-(n-pentadecyl)indole-4-carboxylate]
- change in vivo at 0.2 % strength [1]: -5%
- change in vivo at 0.2 % strength [2]: -2%

Structure (SMILES): CCCCCCCCCCCc1cc2cc(C(=O)O)ccc2[nH]1 [Compound F, 2-(n-undecyl)indole-5-carboxylic acid]
- change in vivo at 0.1 % strength [1]: -18%
- change in vivo at 0.1 % strength [2]: -43%
- change in vivo at 0.2 % strength [1]: -37%
- change in vivo at 0.2 % strength [2]: -73%

Structure (SMILES): CCCCCCCCCCCc1cc2ccc(C(=O)OCC)cc2[nH]1 [Compound FF, ethyl 2-(n-undecyl)indole-6-carboxylate]
- change in vivo at 0.2 % strength [1]: -13%
- change in vivo at 0.2 % strength [2]: -40%

Structure (SMILES): CCCCCCCCCCCc1cc2ccc(C(=O)OCCCC)cc2[nH]1 [Compound GG, n-butyl 2-(n-undecyl)indole-6-carboxylate]
- change in vivo at 0.2 % strength [1]: -11%
- change in vivo at 0.2 % strength [2]: -35%

Structure (SMILES): CCCCCCCCCCCCCc1cc2cc(C(=O)O)ccc2[nH]1 [Compound H, 2-(n-tridecyl)indole-5-carboxylic acid]
- change in vivo at 0.1 % strength [1]: -15%
- change in vivo at 0.1 % strength [2]: -26%
- change in vivo at 0.2 % strength [1]: -48%
- change in vivo at 0.2 % strength [2]: -68%

Structure (SMILES): CCCCCCCCCCCCCCCc1cc2cc(C(=O)OCCCC)ccc2[nH]1 [Compound HH, n-butyl 2-(n-pentadecyl)indole-5-carboxylate]
- change in vivo at 0.2 % strength [1]: -24%
- change in vivo at 0.2 % strength [2]: -50%

Structure (SMILES): CCCCCCCCCCCCCCCc1cc2cccc(C(=O)O)c2[nH]1 [Compound I, 2-(n-pentadecyl)indole-7-carboxylic acid]
- change in vivo at 0.2 % strength [1]: -26%
- change in vivo at 0.2 % strength [2]: -33%

Structure (SMILES): CCCCCCCCCCCCCCCc1cc2c(C(=O)O)cccc2[nH]1 [Compound J, 2-(n-pentadecyl)indole-4-carboxylic acid]
- change in vivo at 0.2 % strength [1]: -9%
- change in vivo at 0.2 % strength [2]: -2%

Structure (SMILES): CCCCCCCCCCCCc1cc2cc(C(=O)OCCCC)ccc2[nH]1 [Compound KK, n-butyl 2-(n-dodecyl)indole-5-carboxylate]
- change in vivo at 0.2 % strength [1]: -18%
- change in vivo at 0.2 % strength [2]: -34%

Structure (SMILES): CCCCCCCCCc1cc2ccc(C(=O)O)cc2[nH]1 [Compound L, 2-(n-nonyl)indole-6-carboxylic acid]
- change in vivo at 0.2 % strength [1]: -21%
- change in vivo at 0.2 % strength [2]: -25%

Structure (SMILES): CCCCCCCCCCCCCCCc1cc2cc(C(=O)OC)ccc2[nH]1 [Compound LL, methyl 2-(n-pentadecyl)indole-5-carboxylate]
- change in vivo at 0.1 % strength [1]: -13%
- change in vivo at 0.1 % strength [2]: -32%
- change in vivo at 0.2 % strength [1]: -16%
- change in vivo at 0.2 % strength [2]: -22%

Structure (SMILES): CCCCCCCCCCc1cc2cc(C(=O)O)ccc2[nH]1 [Compound M, 2-(n-decyl)indole-5-carboxylic acid]
- change in vivo at 0.2 % strength [1]: -26%
- change in vivo at 0.2 % strength [2]: -65%

Structure (SMILES): CCCCCCCCCCCCCCCc1cc2c(C(=O)OCCCC)cccc2[nH]1 [Compound MM, n-butyl 2-(n-pentadecyl)indole-4-carboxylate]
- change in vivo at 0.2 % strength [1]: 25%
- change in vivo at 0.2 % strength [2]: -41%

Structure (SMILES): CCCCCCCCCCc1cc2ccc(C(=O)O)cc2[nH]1 [Compound N, 2-(n-decyl)indole-6-carboxylic acid]
- change in vivo at 0.2 % strength [1]: -20%
- change in vivo at 0.2 % strength [2]: -45%

Structure (SMILES): CCCCCCCCCc1cc2cc(C(=O)O)ccc2[nH]1 [Compound O, 2-(n-nonyl)indole-5-carboxylic acid]
- change in vivo at 0.2 % strength [1]: -13%
- change in vivo at 0.2 % strength [2]: -44%

Structure (SMILES): CCCCCCCCCCCCCCCCc1cc2cc(C(=O)O)ccc2[nH]1 [Compound OO, 2-(n-hexadecyl)indole-5-carboxylic acid]
- change in vivo at 0.2 % strength [1]: -52%
- change in vivo at 0.2 % strength [2]: -75%

Structure (SMILES): CCCCCCCCc1cc2ccc(C(=O)O)cc2[nH]1 [Compound P, 2-(n-octyl)indole-6-carboxylic acid]
- change in vivo at 0.2 % strength [1]: -32%
- change in vivo at 0.2 % strength [2]: -37%
